Entries after “also recorded” stand apart in the source; their conditions may differ. Where two headings read alike, the source gives them in different places. Values belong to the compound of their own block, whether it stands above or below them.
Tests used:
[1] = biological target: T1, PHD2181-402 (Homo sapiens, UniProt Q9GZT9); assay: bioluminescent succinate detection assay of recombinant PHD2181-402 activity/inhibition; format: biochemical; details: for fold less effective at inhibiting PHD2181-402 than butyrate: compared with butyrate
T1 construct: made in house
T1 sequence (Q9GZT9 181-402): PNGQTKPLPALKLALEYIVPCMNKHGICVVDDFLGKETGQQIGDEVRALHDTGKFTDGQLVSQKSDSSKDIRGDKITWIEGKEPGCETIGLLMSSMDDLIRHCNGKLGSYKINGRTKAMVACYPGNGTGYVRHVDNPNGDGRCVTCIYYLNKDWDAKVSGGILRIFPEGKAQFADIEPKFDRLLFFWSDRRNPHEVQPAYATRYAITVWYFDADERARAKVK
Text: To pinpoint if butyrate inhibits PHDs directly, we expressed recombinant PHD derived from the human PHD2 sequence. There are three human PHDs: PHD1, PHD2, and PHD3, with PHD2 being the most abundant and expressed in the majority of tissues, the most important regulator of HIF, particularly HIF-1α, and the only PHD that is embryonically lethal when deleted. PHD1 is exclusively localized to the nucleus, whereas PHD2 is mainly cytoplasmic, and PHD3 is both. […] Sequence comparisons and modeling studies indicate that the PHD2 active site is highly conserved among the PHDs.
IC50s depend on exact experimental conditions, making direct comparisons and global applications difficult.

[2] = test system: PHDs; details: range across studies, assay conditions vary; read-out: reported IC50s; cited from earlier work
[3] = test system: PHD (2-OG accumulation) in T84 IECs; assay: 2-OG levels in T84 cells as biomarker of PHD inhibition; format: cell-based; details: 3 h, 10 mM butyrate, 30 μM IOX2
Description: (B) 2-OG concentrations in T84 cells treated with 10 mM butyrate with or without 1 mM MCPA or 30 μM IOX2 for 3 h
The relationship between butyrate and HIF, were examined whether butyrate influences PHD activity by monitoring 2-OG levels. […] In this, we considered such 2-OG accumulation as a metabolic biomarker of PHD inhibition (FIG. 3A).

[4] = test system: HIF-1α / PHDs in murine colon tissue; assay: rectal gavage of butyrate or IOX2 in antibiotic SCFA-depleted mice; format: in vivo; details: 1 h, 100 mM butyrate, 1.5 mM IOX2
[5] = test system: HIF1α in caco-2 cells; assay: HIF1α MSD assay and immunoblot in caco-2 cells; format: cell-based; details: for BNIP3 immunoblot over time: c2bbe cell lysates, various timepoints
Description: (A) Structures of butyrate derivatives investigated in initial screen for HIF stabilization. […] (D) Dose response study of HIF1a accumulation in T84 cells treated with decreasing concentrations of MBA and BA for 6 h.
(A) Immunoblots of HIF1a protein over time after exposure of T84 cells to 5 mM BA and MBA. (B) Mesoscale assay of HIF1a protein over time in caco-2 cells treated with 5 mM MBA compared to veh. […] Data are presented as mean+S.E.M, *p<0.05, **p<0.01, ***p<0.001.
HIF1a Mesoscale assay of BA derivatives investigated in caco-2 (A) and T84 (B) intestinal epithelial cells (5 mM, 6 h), identifying MBA as a promising candidate in HIF1a stabilization (Veh=HBSS+).
(§1) Endogenous and non-endogenous butyrate derivatives with specifically chosen functional groups at different positions within the small molecule and assess their effects on HIF stabilization (FIG. 21A). To study a small library of butyrate derivatives we employed an electrochemiluminescence based assay to quantify HIF1α levels using the Meso Scale Discovery (HIF1α MSD assay, http://www.mesoscale.com) technology. Similar to the sandwich enzyme-linked immunosorbent assay (ELISA), this technology captures and detects HIF1α protein using two specific antibodies but utilizes electrochemiluminescence-based signal generation and detection. Using lysates from intestinal epithelial cells (IECs) caco-2 and T84 exposed to a physiological relevant concentration of 5 mM butyrate derivatives for 4h, this assay was employed to determine HIF1α protein concentration. A bona-fide and potent PHD2 inhibitor (IOX4) was used to stabilize HIF1α as a positive control. Various butyrate derivatives increased HIF1α relative concentration in both cell lines compared to low signals detected in untreated lysates. […] We decided to focus on this interesting butyrate derivative for further studies.
(§2) To elucidate the effectiveness of MBA to stabilize HIF1α over time and possibly shine light on how quickly it can be metabolized in-vitro, time-course studies where performed between BA and MBA, IOX4 was used as a positive control. […] Employing the HIF1α MSD assay, we screened for various timepoints in caco-2 cell lysates exposed to MBA (5 mM). […] BNIP3 is involved in cell survival and is a known HIF1α target that is induced through chemical stabilization of HIF or hypoxia. BNIP3 promoter comprises a functional hypoxia response element (HRE) and can be activated by HIF1α.[5] Parallel to our HIF stabilization time course studies, we wanted to assess the transcriptional activity of the stabilized protein over time.

[6] = test system: HIF1α in T84 cells; assay: HIF1α immunoblot in T84 cells (MBA vs BA); format: cell-based; details: for HIF1α stabilization over time (immunoblot): 5 mM BA and MBA, IOX4 positive control
Description: (A) Structures of butyrate derivatives investigated in initial screen for HIF stabilization. Immunoblot of HIF1a protein levels in Caco-2 cells (B) and T84 cells (C) exposed to veh (HBSS+), […], or 5 mM butyrate derivatives for 6h. (D) Dose response study of HIF1a accumulation in T84 cells treated with decreasing concentrations of MBA and BA for 6 h.
(A) Immunoblots of HIF1a protein over time after exposure of T84 cells to 5 mM BA and MBA. (B) Mesoscale assay of HIF1a protein over time in caco-2 cells treated with 5 mM MBA compared to veh. (C) HIF1a and HIF target (BNIP3) protein in caco-2 cells exposed to veh (HBSS+), […] or 5 mM MBA. Data are presented as mean+S.E.M, *p<0.05, **p<0.01, ***p<0.001.
as §1, §2

[7] = test system: HIF target genes in T84 cells; assay: real-time PCR of HIF target genes BNIP3 and CAIX in T84 cells; format: cell-based; details: 16h
Description: (A) Exposure of T84 cells to Veh, BA or MBA (5 mM, 16 h) induced HIF target gene expression of CAIX and BNIP3. […] (C) Non-targeting control and T84 HIF1b depleted cells were analyzed for HIF1b expression by western blotting, shown with a representative blot. Quantification of HIF1b decrease was performed using ACTB-normalized densitometry. qPCR data was analyzed by One-way ANOVA with Bonferroni for post hoc correction and presented as mean±S.E.M, **p<0.01, ***p<0.001, ****p<0.0001 of three independent experiments.
Following these findings, we then explored if the MBA-induced stabilization of HIF was reflected in the transcriptional regulation of target genes. We utilized real-time PCR to study the influence of MBA mediated HIF stabilization in the induction of established HIF targets, BNIP3 (cell survival) and CAIX (pH regulation).
Furthermore, to confirm MBA-induced HIF transcriptional activity, we quantified the induction of BNIP3 and CAIX by BA or MBA (5 mM, 16h) in lentiviral shRNA-mediated knockdown of HIF1β relative to non-targeting shRNA controls. […] These findings confirm that through MBA exposure, HIF is stabilized and it is transcriptionally active.

[8] = test system: HIF regulated targets; assay: intraperitoneal injection in C57BL/6 mice, HIF regulated targets (EPO, GLUT1); format: in vivo; details: MBA 80 mg/kg, 24h
Description: Erythropoietin (EPO) is regulated by HIF stabilization. (A) EPO protein in blood serum was assessed by mesoscale assay (n=6-8). qPCR mRNA expression of HIF target mGLUT1 in kidney (B) and colon tissue (C) (n=3-8). Data analyzed by One-way ANOVA with Tukey for post hoc correction and presented as mean±S.E.M of two independent experiments, *p<0.05, **p<0.01, ***p<0.001, ****p<0.0001 […]
At 24 h, mice were sacrificed followed by exsanguination, extraction of right kidney and distal colon for analysis of HIF stabilization and HIF target gene expression. SHBA induces HIF regulated targets in vivo. Erythropoietin (EPO) is regulated by HIF stabilization. (A) EPO protein in blood serum was assessed by mesoscale assay (n=6-8). (B) qPCR mRNA expression of HIF target mGLUT1 in colon tissue (n=3-4). Data are presented as mean±S.E.M of two independent experiments, *p<0.05, **p<0.01.
A typical physiologic response to hypoxia is the increase in red blood cell production. Naturally, HIF is in charge of this response by regulating cell-type specific gene expression that leads to increased levels of the hormone erythropoietin (EPO).[10] […] We lastly explored the in-vivo effects of MBA in mediating induction of genes tightly regulated by HIF. […] After 24h of treatment, they were sacrificed and quickly exsanguinated to measure EPO levels in serum. […] Furthermore, we studied the induction of GLUT1, another classic HIF target responsible for the transport of various monosaccharides. Kidney and colon tissue were analyzed by real-time PCR to compare BA and MBA head-to-head. […] These findings support the ability of MBA to stabilize HIF in-vivo leading to the induction of classic target genes and transcription of a tightly regulated protein EPO.

[9] = biological target: T1, PHD2181-402; assay: WaterLOGSY 1D NMR binding to PHD2181-402; details: 10 mM SCFA, 25 μM PHD2181-402
Text: Protons attached to C4 were selectively inverted and acted as source of magnetization transfer. […] (G) Protons attached to C2 were selectively inverted.
Measurements were repeated 3 times.
This method enables sensitive and robust detection of binding (dissociation constants as weak as μM to low mM) based on the magnetization transfer between water molecules, proteins, and ligands of interest in close proximity via dipolar proton-proton cross-relaxation (nuclear Overhauser effect, NOE). […] Binding and non-binding ligands can be distinguished in a WaterLOGSY spectrum via their opposite signs in relation to water for their corresponding peaks.
This technique allows for mapping of the ligand pharmacophore by monitoring the response of individual protons to an increase of ROEs contribution to the overall cross relaxation rate.

[10] = calculated from measured IC50 accounting for substrate conversion, n = 4, error: SEM, read-out: True IC50 for PHD2181-402

IC50 [1, 10]: 77 ± 6 mM
Compound: CCC(CC)C(=O)O [2-Ethylbutyrate]

IC50 [1, 10]: 14 ± 1 mM
Compound: CC(O)CC(=O)O (centres unmarked) [3-Hydroxybutyrate]

IC50 ([1]; 1 μM PHD2181-402, 10 μM 2-OG, 10-minute reaction, n=5-12, error: SEM, read-out: true half maximal inhibitory concentration (IC50) for PHD2181-402): 1.9 ± 0.5 mM
Compound: COC(=O)CNC(=O)C(=O)OC [DMOG, dimethyloxalylglycine, reference compound]
IC50 [2]: 0.00289 to 4 mM

Compound: O=C(O)CNC(=O)c1c(O)c2ccccc2n(Cc2ccccc2)c1=O [IOX2, reference compound]
2-OG levels compared to control [3]: to lesser extent than butyrate
colon tissue 2-OG levels after antibiotics [4]: rescued
mRNA expression of HIF-1α targets Bnip3, Bnip3l, Glu1 after antibiotics [4]: rescued

Compound: CC(C)(C)OC(=O)c1ccc(-n2[nH]cc(-n3ccnn3)c2=O)nc1 [IOX4, reference compound]
BNIP3 immunoblot over time [5]: supported active HIF1α transcription
HIF1α stabilization over time (immunoblot) ([6]; T84 cells): no longer effective at the 72h timepoint

Compound: O=C(O)CCCS [MBA, 4-Mercaptobutyrate]
BNIP3 immunoblot over time [5]: supported active HIF1α transcription
HIF1α immunoblot compared with IOX4 ([5]; caco-2, 5 mM MBA vs IOX4 (10 μM)): at least as much as IOX4
HIF1α immunoblot compared with butyrate ([5]; caco-2, equimolar concentration (5 mM)): exceeding the capabilities of butyrate
HIF1α relative concentration over time (MSD assay) ([5]; caco-2 cell lysates, 5 mM, up to 72h): rapidly stabilized (3h)
HIF1α relative concentration (MSD assay) ([5]; caco-2 lysates, 5 mM, compared with IOX4): exceeded HIF stabilization in caco-2 compared to the potent IOX4 PHD2 inhibitor
HIF1α immunoblot compared with butyrate ([6]; T84, equimolar concentration (5 mM)): exceeding the capabilities of butyrate
HIF1α stabilization over time (immunoblot) ([6]; T84 cells): observed clearly up to 72h
dose response of HIF1α accumulation ([6]; T84 cells, decreasing concentrations, 6 h): can stabilize HIF at the low millimolar range
HIF target gene induction compared to BA ([7]; T84, 5 mM): more potent than BA; also recorded: more prominent induction of HIF target genes compared to BA
induction of HIF target genes BNIP3 and CAIX ([7]; T84, 5 mM): significant induction
induction of BNIP3 and CAIX in cells lacking HIF1β ([7]; T84 HIF1β shRNA knockdown, 5 mM): complete loss of induction
GLUT1 mRNA in colon tissue ([8]; IP, BA 73 mg/kg): significantly increased in colon tissue
GLUT1 mRNA in kidney ([8]; IP, BA 73 mg/kg): induction of GLUT1 in kidney
EPO concentration in serum ([8]; one IP injection, compared to vehicle, DMOG and BA): significantly higher concentration of EPO

fold less effective at inhibiting PHD2181-402 than butyrate [1]: ~10 fold
binding to PHD2181-402 by WaterLOGSY [9]: no binding
Compound: CC(=O)O [acetate, Acetic acid, reference compound]

fold less effective at inhibiting PHD2181-402 than butyrate [1]: ~10 fold
binding to PHD2181-402 by WaterLOGSY [9]: no binding
Compound: CCC(=O)O [propionate, propionic acid, reference compound]

fold less effective at inhibiting PHD2181-402 than butyrate [1]: ~3 fold
binding to PHD2181-402 by WaterLOGSY [9]: no binding
Compound: CCCCC(=O)O [valerate, valeric acid, reference compound]
